Patent US20240238304A1, “Small Molecule Degraders of DOT1L and Uses Thereof” (Northwestern University, priority 2022, published 2024)

Legend:
[1] = target: T1, DOT1L (Homo sapiens, UniProt Q8TEK3); experiment: Screening of PROTAC degraders of DOT1L: western blotting of nuclear extract; format: cell-based; settings: 1 μM, 48 h (2 days) treatment, LNCaP cell line, Lamin B loading control
T1 construct: nuclear protein was extracted using NE-PER Nuclear and Cytoplasmic Extraction Reagents; endogenous in cells; host or cells: LNCaP
T1 sequence (Q8TEK3 whole entry): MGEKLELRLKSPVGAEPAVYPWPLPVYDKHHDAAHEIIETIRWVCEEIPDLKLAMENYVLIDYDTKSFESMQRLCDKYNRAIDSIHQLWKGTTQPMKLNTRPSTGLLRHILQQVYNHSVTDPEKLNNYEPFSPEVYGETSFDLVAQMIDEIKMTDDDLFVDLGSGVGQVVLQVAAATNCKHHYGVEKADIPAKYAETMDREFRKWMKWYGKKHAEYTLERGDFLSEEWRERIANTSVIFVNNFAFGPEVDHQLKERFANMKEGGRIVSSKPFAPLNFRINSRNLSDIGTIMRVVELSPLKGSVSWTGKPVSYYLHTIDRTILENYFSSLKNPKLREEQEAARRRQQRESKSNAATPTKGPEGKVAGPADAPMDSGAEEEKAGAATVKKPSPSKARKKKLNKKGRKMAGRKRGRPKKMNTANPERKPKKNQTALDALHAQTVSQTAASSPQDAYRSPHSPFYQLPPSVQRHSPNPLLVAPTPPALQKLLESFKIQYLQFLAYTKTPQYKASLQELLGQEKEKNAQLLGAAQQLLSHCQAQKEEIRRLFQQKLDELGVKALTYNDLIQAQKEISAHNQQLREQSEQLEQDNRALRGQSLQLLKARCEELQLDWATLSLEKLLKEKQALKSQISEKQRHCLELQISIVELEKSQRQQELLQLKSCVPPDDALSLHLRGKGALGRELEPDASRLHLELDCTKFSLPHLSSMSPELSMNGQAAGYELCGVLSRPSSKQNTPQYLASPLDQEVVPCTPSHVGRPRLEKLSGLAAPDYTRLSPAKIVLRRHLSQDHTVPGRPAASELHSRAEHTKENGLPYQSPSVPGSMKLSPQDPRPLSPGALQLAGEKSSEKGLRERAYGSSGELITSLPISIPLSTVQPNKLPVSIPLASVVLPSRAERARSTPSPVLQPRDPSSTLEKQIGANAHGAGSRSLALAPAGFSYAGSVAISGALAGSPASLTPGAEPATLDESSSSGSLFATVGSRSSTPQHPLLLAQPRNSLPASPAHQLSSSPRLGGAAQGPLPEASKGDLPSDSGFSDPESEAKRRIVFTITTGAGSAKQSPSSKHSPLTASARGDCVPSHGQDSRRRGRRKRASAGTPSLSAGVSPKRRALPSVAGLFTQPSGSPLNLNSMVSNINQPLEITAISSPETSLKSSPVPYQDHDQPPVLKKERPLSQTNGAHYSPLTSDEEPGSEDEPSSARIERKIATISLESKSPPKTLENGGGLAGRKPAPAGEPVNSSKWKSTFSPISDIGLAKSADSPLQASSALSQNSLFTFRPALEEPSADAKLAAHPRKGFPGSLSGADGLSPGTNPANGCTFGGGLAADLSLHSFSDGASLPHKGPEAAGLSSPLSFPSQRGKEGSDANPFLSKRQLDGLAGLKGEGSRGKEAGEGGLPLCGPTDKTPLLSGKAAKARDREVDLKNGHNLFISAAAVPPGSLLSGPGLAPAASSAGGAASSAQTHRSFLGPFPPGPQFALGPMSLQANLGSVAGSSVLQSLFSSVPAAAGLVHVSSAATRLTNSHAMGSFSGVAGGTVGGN
Method: LNCaP cells were cultured in complete RPMI1640 media. 70-80% confluent of cells were treated with 1 μM PROTAC degraders of DOT1L (Group A-D), 1 μM parent compound 534, 1 μM EPZ5676, and DMSO (Vehicle) for 48 h. Then, nuclear protein was extracted using NE-PER Nuclear and Cytoplasmic Extraction Reagents (Thermo Scientific 78833) followed by western blotting. Protein band intensity was measured by Image J.
(§1) Nuclear protein extracts were separated by Bolt™ 4-12% Bis-Tris Plus Gels (Invitrogen) and transferred to PVDF membranes by wet transfer. The membranes were blocked with 5% Blotting-Grade Blocker (Bio-Rad) in Tris-buffered saline with 0.5% Tween 20 (TBST) for 1 h at room temperature, and then incubated overnight at 4° C. in blocking buffer with primary antibody including rabbit DOT1L (D1W4Z) mAb1:3000 (CellSignalingTechnology, Cat #77087) and goat lamin B(C-20) pAb 1:1000 (Santa Cruz Biotechnology, Cat #sc-6216). After incubation with HRP-conjugated goat anti-rabbit secondary antibody 1:10,000 (Bio-Rad, Cat #170-6515) or HRP-conjugated donkey anti-goat secondary antibody 1:3000 (Santa Cruz Biotechnology, Cat #sc-2020) for 1 h, the membranes were detected using Super Signal West Femto (Thermo Fisher Scientific, Cat #34096).

[2] = target: T1, DOT1L; experiment: Time-course analysis of DOT1L degradation: western blotting of nuclear extract; format: cell-based; settings: 1 μM, multiple time points 1 h to 72 h, LNCaP cell line, nuclear extraction
Method: LNCaP cells were culturedincompleteRPMIl640 media. 70-80% confluent of cells were treated with 1 μM 705 (Group D), 1 μM 588 (Group A), 1 μM 593 (Group C), 1uM 534 (parent), 1 μM EPZ5676, and DMSO for 1 h, 2 h, 6 h, 24 h, 48 h, and 72 h. Then, nuclear protein was extracted using NE-PER Nuclear and Cytoplasmic Extraction Reagents (Thermo Scientific 78833) followed by western blotting. Protein band intensity was measured by Image J.
as §1

| DOT1L degradation (western blot, nuclear extraction) [1] | DOT1L degradation over time (order of degradation) [2] | SMILES |
| --- | --- | --- |
| didn't degrade DOT1L protein | didn't degrade DOT1L until 72 h | COc1nc(Nc2cc(S(C)(=O)=O)ccc2N[C@@H](c2cccc3c2OC(F)(F)O3)c2ncccc2Cl)nc(N2CCNCC2)n1 [Compound 534] |
| didn't degrade DOT1L protein | didn't degrade DOT1L until 72 h | CC(C)N(C[C@H]1O[C@@H](n2cnc3c(N)ncnc32)[C@H](O)[C@@H]1O)[C@H]1C[C@@H](CCc2nc3cc(C(C)(C)C)ccc3[nH]2)C1 [EPZ5676, reference compound] |
| accelerated the most DOT1L degradation | degraded DOT1L protein in this order | COc1nc(Nc2cc(S(C)(=O)=O)ccc2N[C@@H](c2cccc3c2OC(F)(F)O3)c2ncccc2Cl)nc(N2CCN(CCOCCNC(=O)COc3cccc4c3C(=O)N(C3CCC(=O)NC3=O)C4=O)CC2)n1 (stereo partly drawn) [Compound 588] |
